# Measured values: article PMC5955599, “The HTLV-1 gp21 fusion peptide inhibits antigen specific T-cell activation in-vitro and in mice” (PLoS Pathogens, 2018)
# “Also recorded” adds a separate entry of the source.
# Legend:
# Format in all cases: cell-based, mouse (C57Bl/6J)
# [1] = test system: MOG35-55–antigen specific T-cells; assay: In-vitro T-cell proliferative response (H3-thymidine incorporation); conditions: peptide at 10μM
# [2] = test system: MOG35-55–antigen specific T-cells; assay: Cytokine secretion from activated antigen-specific T-cells (ELISA); conditions: peptide at 10μM, APC-activated T-cells, media 24 hours following activation, n = 12
# Procedure: Fig 2 Modulation of Th1/Th2 gene expression and cytokine secretion from activated T-cells by the HTLV FP. MOG35-55–antigen specific T-cells were activated by irradiated MOG35-55 presenting APCs, in the presence of the HTLV FP at 10μM. (A) Total RNA was isolated 24 hours following activation and mRNA expression levels were determined by qRT-PCR. The values of each gene were normalized to Rpl13a as a housekeeping control. The HTLV FP reduces mRNA expression of Th1 specific genes (IFNG, LTA, and STAT4) and elevates mRNA expression of Th2 specific genes (IL4 and IL10). The data is presented as arbitrary units. n≥3. (B) Media was collected 24 hours following activation and secretion of cytokines was measured by ELISA assay. IFN-γ secretion is inhibited, IL4 secretion is elevated and TNFα is not affected by the HTLV FP. n = 12. One-way ANOVA was used for statistical analysis. *P<0.05; **P<0.01;***P<0.001.
# Antigen-specific T-cells were plated onto round 96-well plates in medium containing RPMI-1640 supplemented with 2.5% fetal calf serum (FCS), 100 U/ml penicillin, 100 μg/ml streptomycin, 50μM β-mercaptoethanol, and 2mM L-glutamine. […] In addition, the relevant peptide was added. Each treatment was made with quadruplicate. Analysis of IFN-γ, IL-4 and TNFα secretion was performed by ELISA 24 hours after cell activation according to standard protocols from R&D systems.
# [3] = test system: MOG35-55–antigen specific T-cells; assay: T-bet and Gata3 expression detected by FACS; conditions: peptide at 10μM, APC activation, n = 3
# Procedure: (A-B) MOG35-55–antigen specific T-cells were activated by irradiated MOG35-55 presenting APCs, in the presence of the HTLV FP at 10μM. Total RNA was isolated 24 hours following activation and mRNA expression levels were determined by qRT-PCR. The values of each gene were normalized to Rpl13a as a housekeeping control. The HTLV FP reduces TBX21 (T-bet) mRNA expression and elevates GATA3 mRNA expression. The data is presented as arbitrary units. n≥3. (C-H) MOG35-55–antigen specific T-cells were activated by irradiated MOG35-55 presenting APCs, in the presence of either HTLV or HIV FP at 10μM. Samples were fixed in 4% PFA and stained with anti T-bet-APC and anti Gata3-FITC antibodies (C-D) 24, (E-F) 48 and (G-H) 72 hours following activation. Each time point is represented as cell count vs. APC or FITC fluorescence histogram. Analysis was performed using LSR-II flow cytometer (BD) and FlowJo cell analysis software (FlowJo, LLC). The HTLV FP reduces T-bet expression and elevates Gata3 expression. n = 3. One-way ANOVA was used for statistical analysis. ns, not significant; *P<0.05;** P<0.01.
# Antigen-specific T-cells were plated onto round 12-well plates (10^6 cells/ well) and activated with 5x10^5 irradiated (25 gray) APC and 5μg/ml of MOG p35-55 in the presence or absence of relevant peptides. Cells were washed with PBS, blocked (5% Donkey serum, 2% BSA and 0.1% Triton in PBS) and fixed with 4% Paraformaldehyde (PFA) 24 hour following activation. Cells were then stained with Gata3-FITC and T-bet-APC fluorochrome-labeled monoclonal mouse antibodies (purchased from Miltenyi Biotec) according to Miltenyi Biotec protocols. Samples were then collected using LSR-II flow cytometer and analyzed with FlowJo cell analysis software.
sequence,measurement,setting,value
"AVPVAVWLVSALAMGAGVAGGITGSMSLASGKS [HTLV FP, gp21 fusion peptide of HTLV-1, MT-2 isolate]","inhibition of T-cell proliferation, activation by PMA and Ionomycin","[1]; 50ng/mL PMA with 1μM ionomycin, n = 12",inhibited T-cell proliferation induced at all three levels of activation with equal potency
same,"inhibition of T-cell proliferation, activation by antibodies against CD3 and CD28","[1]; CD3 and CD28 antibodies 2μg/ml, n = 12",inhibited T-cell proliferation induced at all three levels of activation with equal potency
same,"inhibition of T-cell proliferation, activation by MOG35-55 presenting APCs","[1]; irradiated MOG35-55 presenting APCs, mean inhibition of proliferation, n = 12, 10 µM",inhibit T-cell proliferation with equal potency to that of HIV’s FP and significantly stronger than the BLV FP; also recorded: inhibited T-cell proliferation induced at all three levels of activation with equal potency; also recorded: inhibited both T-cell proliferation and IFN-γ secretion with higher potency than the HTLV Scr; also recorded: inhibit T-cell proliferation with higher potency than HTLV FP9-22 and HTLV FP14-22
same,IFN-γ secretion,[2],inhibited both T-cell proliferation and IFN-γ secretion with higher potency than the HTLV Scr
same,IL4 secretion,[2],elevated IL4 secretion
same,TNF-α secretion,[2],had no effect on TNF-α secretion
same,"Gata3 expression (protein), 24 hours",[3]; 24 hours following activation,elevated Gata3 expression
same,"T-bet expression (protein), 24 hours",[3]; 24 hours following activation,reduced T-bet expression
same,"Gata3 expression (protein), 48 hours",[3]; 48 hours following activation,elevated Gata3 expression
same,"T-bet expression (protein), 48 hours",[3]; 48 hours following activation,reduced T-bet expression
same,"Gata3 expression (protein), 72 hours",[3]; 72 hours following activation,elevated Gata3 expression
same,"T-bet expression (protein), 72 hours",[3]; 72 hours following activation,no difference was observed
